Entries after “also recorded” stand apart in the source; their conditions may differ.
Columns and labels:
[1] = tested on: mouse oligodendrocyte progenitor cells (OPCs); assay: Mouse OPC differentiation with IRX4204 and T3; type: cell-based; conditions: 5-day treatment, 96-well plates
Experimental: OPCs were derived from plp-EGFP expressing mice.
Therapeutic agents were tested in 96-well plates (6 wells per concentration). […] All media contained 0.1% DMSO. At the end of the 5-day treatment, cells were imaged on Cellomics in two channels and algorithms were used to count nuclei and EGFP+oligodendrocytes.

[2] = target: Nurr1/RXR heterodimer (Homo sapiens, UniProt P19793); assay: Nurr1/RXR transactivation assay (COS 7 cells, NBRE-tk-luc); type: cell-based; conditions: Nurr-1 with or without RXRα
Chain of Nurr1/RXR heterodimer (P43354 whole entry partner, one chain of several): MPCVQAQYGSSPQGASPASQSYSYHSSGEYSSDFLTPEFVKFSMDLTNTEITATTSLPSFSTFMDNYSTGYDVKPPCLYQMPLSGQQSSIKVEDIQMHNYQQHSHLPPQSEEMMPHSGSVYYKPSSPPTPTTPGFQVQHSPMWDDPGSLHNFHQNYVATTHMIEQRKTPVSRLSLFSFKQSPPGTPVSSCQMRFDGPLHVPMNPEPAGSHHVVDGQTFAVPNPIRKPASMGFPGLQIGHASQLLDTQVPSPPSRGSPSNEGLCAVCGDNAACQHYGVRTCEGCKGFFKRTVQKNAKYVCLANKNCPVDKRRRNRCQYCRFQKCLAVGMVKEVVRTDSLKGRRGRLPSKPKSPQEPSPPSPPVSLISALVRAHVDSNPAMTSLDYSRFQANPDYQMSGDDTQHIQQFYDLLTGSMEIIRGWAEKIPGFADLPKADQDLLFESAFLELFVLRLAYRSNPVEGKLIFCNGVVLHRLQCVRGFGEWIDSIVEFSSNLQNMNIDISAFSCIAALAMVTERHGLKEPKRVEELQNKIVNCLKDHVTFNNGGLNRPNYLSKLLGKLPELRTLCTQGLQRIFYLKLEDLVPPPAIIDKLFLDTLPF
From the text: (§1) For PPARγ: CV-1 cells were transfected with 3×(rAOX/DR1)-tk-Luc reporter gene and an expression vector for PPARγ. For FXR:CV-1 cells were transfected with 3×(IBABP/IRI)-tk-Luc reporter gene and vectors for FXR and RXRα. For LXR:CV-1 cells were transfected with 3×(PLTP/LXRE)-tk-Luc reporter gene with vectors for LXRα or LXRβ. For Nurr1: COS 7 cells were transfected with 3×NBRE-tk-luc reporter gene and full length Nurr-1 with or without full-length RXRα plasmid. […] Luciferase data were normalized to co-transfected β-gal activity. Luciferase activity was expressed as percent of maximal activity obtained using specific agonists. Rosiglitazone (PPARγ), GW4064 (FXR), T0901317 (LXR).

[3] = tested on: EAE in SJL mice; assay: EAE in SJL mice (PLP peptide); type: in vivo
Experimental: To determine whether a RXR agonist can attenuate multiple sclerosis, SJL mice were immunized to induce EAE by s.c. injection at the base of their spine with 200 μL of adjuvant containing 200 μg proteolipid proteins (139-151) (PLP peptide; Peptides International, Louisville, Ky.) and 400 μg of non-viable M. tuberculosis H37 desiccate emulsified in a mixture of incomplete Freund's adjuvant and PBS. Mice were also given 150 ng of pertussis toxin in PBS i.p. on the same day as PLP emulsion injection and 2 days later. […] Mice were scored using the scale described in Example 3.

[4] = tested on: oligodendrocyte precursor cells (OPCs); assay: OPC differentiation into oligodendrocytes (PLP-EGFP, Example 7); type: cell-based, mouse; conditions: compared to negative control (DMSO)
From the text: OPCs were generated from a neurosphere culture of E14.5 PLP-EGFP (on C57BL/6J background) mouse brains. […] The EGFP expressing cells were quantified with Cellomics Neuronal Profiling Algorithm.
The EGFP expressing cells in controls and all compounds were quantified with Cellomics Neuronal Profiling Algorithm.

[5] = tested on: LXRα/RXR; assay: LXRα/RXR transactivation assay (CV-1 cells); type: cell-based; conditions: 20 hr; relative to T0901317
From the text: as §1

[6] = tested on: experimental autoimmune encephalomyelitis (EAE) in C57BL/6 (B6) mice; assay: EAE in B6 mice (MOG peptide), disease severity score; type: in vivo; conditions: IRX4204 50 μg every other day from day 7 to day 20; vs vehicle
Experimental: Mice were also given 200 ng of pertussis toxin in PBS administered by inter-peritoneal (i.p.) injection on the same day as MOG emulsion injection (day 0) and 2 days later (day 2). […] Mice were scored using the following scale: 0—Mice have no disease, 1—Mice have distal limp tail or rear leg weakness (paresis), 1.5—Mice have distal limp tail and rear leg weakness, 2—Mice have complete limp tail and rear leg weakness, 2.5—Mice have complete limp tail and weakness in both rear legs, 3—Mice have complete limp tail and paralysis in both rear legs, 3.5—Mice have complete limp tail, paralysis in both rear legs, and forelimb weakness. Mice receiving a score of 3.5 were immediately euthanized.

[7] = target: T1, RXRα (Homo sapiens, UniProt P19793); conditions: transactivation assays
T1 sequence (P19793 1-462): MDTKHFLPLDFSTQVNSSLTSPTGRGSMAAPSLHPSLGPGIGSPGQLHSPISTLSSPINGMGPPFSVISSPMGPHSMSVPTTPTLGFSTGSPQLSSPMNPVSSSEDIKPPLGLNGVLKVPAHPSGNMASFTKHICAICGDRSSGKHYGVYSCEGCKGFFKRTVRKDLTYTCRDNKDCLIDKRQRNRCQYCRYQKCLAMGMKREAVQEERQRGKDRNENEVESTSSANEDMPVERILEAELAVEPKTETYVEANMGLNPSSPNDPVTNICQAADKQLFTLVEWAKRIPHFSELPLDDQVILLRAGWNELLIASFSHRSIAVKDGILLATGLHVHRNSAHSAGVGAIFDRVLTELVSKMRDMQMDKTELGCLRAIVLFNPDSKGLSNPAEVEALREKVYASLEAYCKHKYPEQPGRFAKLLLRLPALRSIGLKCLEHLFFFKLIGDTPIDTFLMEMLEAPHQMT
Experimental: To determine whether a RXR agonist can mediate its effects via RXRα receptor homodimers, RXRβ receptor homodimers, RXRγ receptor homodimers, or any combination thereof, or the corresponding RAR/RXR heterodimers, receptor-mediated transactivation assays were performed. For transactivation assays assessing RXR homodimer signaling, CV-1 cells were transfected with 1) an expression construct including a full length RXRα, RXRβ, or RXRγ; and 2) a rCRBPII/RXRE-tk-Luc reporter construct that included RXR homodimer-specific RXRE/DR1 responsive element linked to a luciferase gene. For transactivation assays assessing RAR/RXR heterodimer signaling, CV-1 cells were transfected with 1) an expression construct comprising a fusion protein including an estrogen receptor (ER) DNA binding domain linked to the ligand binding domain of RARα, RARβ, or RARγ and 2) a ERE-tk-Luc reporter construct that included an estrogen receptor responsive element linked to a luciferase gene. […] Data are mean values±SE from five independent experiments.

[8] = tested on: LXRβ/RXR; assay: LXRβ/RXR transactivation assay (CV-1 cells); type: cell-based; conditions: 20 hr; relative to T0901317
From the text: as §1

[9] = tested on: CNS infiltrating leukocytes in EAE C57BL/6 (B6) mice; assay: CNS infiltrating cells in EAE B6 mice (FACS); type: in vivo; conditions: day 20 after immunization, vs vehicle control
Experimental: To determine whether a RXR agonist can reduce central nervous system (CNS) infiltrating cells, C57BL/6 (B6) mice were treated as described in Example 6. On day 20 after immunization, mice were sacrificed and perfused with phosphate buffered saline (PBS). Brain and spinal cord tissue was isolated, digested with DNase and LIBERASE DL® (Roche Diagnostics, Indianapolis, Ind.) for 30 minutes, and homogenized through 70 micron nylon mesh filters. Resulting cells were placed over a Percoll gradient to remove myelin. The remaining cells (microglia and CNS infiltrating cells) were counted, stained for molecules of interest, and run on a flow cytometer. Based on the frequencies obtained by FACS of these cell populations, total cell numbers of CNS infiltrating leukocytes expressing CD45, including CD4^+ T cells and CD11c^+ CD11b^+ myeloid dendritic cells (DC), were calculated.

[10] = tested on: EAE in B6 mice; assay: EAE dose titration in B6 mice with spleen and CNS flow analysis; type: in vivo
Experimental: A dose titration experiment was also conducted in EAE mice. EAE was induced in 28 B6 mice with MOG/CFA and PT as above. Mice were scored on day 7 as indicated above and divided into groups by score so means are as equal as possible.
At the completion of the experiment, the vehicle control and 200 μg/day groups were euthanized and spleen and CNS samples obtained.

[11] = tested on: focal demyelination of caudal cerebellar peduncles in rats; assay: Ethidium bromide focal demyelination in one year old rats; type: in vivo; conditions: IRX4204 10 mg/kg/day oral, thyroxine 20 ng/g s.c., day 7 to 21
Experimental: The experiment uses rats of relatively advanced age (1 year) since such rats undergo remyelination in a less efficient manner, thereby providing data that are more relevant to the clinical treatment of human patients with multiple sclerosis or other demyelination disorders.
Focal demyelination is induced in one year old rats (approximately 300 g in weight) by injecting stereotactically 5 μl of ethidium bromide solution (0.01% vol/vol in saline) in a bilateral manner into the caudal cerebellar peduncles (CCP). […] The rats are killed on day 24 post-ethidium bromide treatment for analysis of remyelination by quantitative polymerase chain reaction (qPCR) and microscopy.

[12] = tested on: cuprizone+rapamycin (CR) demyelination in C57BL/6J mice
From the text: Animals (8 week-old male C57BL/6J mice) were subjected to cuprizone diet plus rapamycin injections (CR) for 6 weeks to induce demyelination. […] All animals were sacrificed after 6 weeks of CR to evaluate axonal integrity and microglial/macrophage activity in the white matter (corpus callosum, CC).
A total of 50 animals were included in the study, where 43 animals received CR demyelination for 6 weeks. During demyelination, a subset (n=7) of animals were kept on normal diet to serve as naïve age-matched controls.
To assess thyroid hormone levels, terminal blood draws were taken to quantify the levels of T4.

[13] = tested on: cuprizone+rapamycin demyelination in C57BL/6J mice; assay: Cuprizone/rapamycin 12-week demyelination, 6-week remyelination treatment; type: in vivo
From the text: All animals were sacrificed after 12 weeks of CR or after further 6 weeks of treatment to evaluate myelin in white matter (corpus callosum) and gray matter (hippocampus and cortex). In addition, the size of myelinated axons was quantified and the large myelinated axons were further assessed by 3D-electron microscopy (3D-EM). A total of 40 animals were included in the study, where all 40 animals received CR demyelination for 12 weeks. After demyelination, a subset (n=10) of animals are sacrificed to serve as controls to assess baseline demyelination. […] Floating brain sections are immunostained with myelin prolipid protein (PLP) to visualize and quantify myelin in gray matter, hippocampus (FIG. 16A) and cortex (FIG. 16B).

[14] = CNS, restimulation with PMA/Ionomycin, 200 μg/day vs vehicle

N[C@@H](Cc1cc(I)c(Oc2ccc(O)c(I)c2)c(I)c1)C(=O)O [Compound T3, triiodothyronine, reference compound]
oligodendrocyte production (EGFP+ oligodendrocytes) [1]: clear dose-responses

CC(/C=C/[C@@H]1C[C@]1(C)c1ccc2c(c1)C(C)(C)CCC2(C)C)=C\C(=O)O [IRX4204, 3,7-dimethyl-6(S),7(S)-methano,7-[1,1,4,4-tetramethyl-1,2,3,4-tetrahydronaphth-7-yl]2(E),4(E) heptadienoic acid]
activation of Nurr1/RXR heterodimer [2]: selectively activates the Nurr1/RXR permissive heterodimer; also recorded: selectively activates RXR-Nurr1 heterodimers | symptoms of EAE (disease severity score) ([3]; 50 μg i.p. every other day from day 7 to day 14): significantly reduces the symptoms of EAE | Death from Disease ([3]; 50 μg i.p. every other day, n=6): 0/6 | OPC differentiation into oligodendrocytes (number of EGFP positive cells) [4]: significant increase; also recorded: dose dependent increase | activation of LXRα/RXR [5]: not to transactivate; also recorded: does not activate | symptoms of EAE (disease severity score) [6]: significantly reduces the symptoms of EAE | more potent in activating RXR receptors rather than RAR receptors [7]: > 1,000 fold | activation of LXRβ/RXR [8]: not to transactivate; also recorded: does not activate | infiltration of CD4+ cells in to the CNS [9]: significant reduction | infiltration of CD11c+ CD11b+ cells (myeloid DC) in to the CNS [9]: significant reduction | oligodendrocyte production (EGFP+ oligodendrocytes) [1]: clear dose-responses | EAE disease overall ([10]; 50 μg, 100 μg, or 200 μg every day from day 8, vs vehicle): significantly less disease overall | Co-expression of IFNg and IL-17A by CD4 T cells in CNS ([10]; CNS, 200 μg/day vs vehicle): not significantly different between groups | total number of infiltrating CD4 T cells in the CNS ([10]; CNS, 200 μg/day vs vehicle): reduced | IFNγ production by CNS infiltrating lymphocytes [10, 14]: significantly reduced | TNF production by CNS infiltrating lymphocytes [10, 14]: significantly reduced | CCR6 expression on CD4 T cells ([10]; spleen, 200 μg/day vs vehicle): lowered CCR6 | CD4+ CD25hi cells (number) ([10]; spleen, 200 μg/day vs vehicle): reduced | CD4+ CD25hi cells frequency ([10]; spleen, 200 μg/day vs vehicle): not altered | CD49d expression on CD4 T cells ([10]; spleen, 200 μg/day vs vehicle): but not CD49d | total number of effector and memory CD4 T cells (CD44 expression) ([10]; spleen, 200 μg/day vs vehicle): decreased | total number of recently activated CD4 T cells (CD69 and CD44) ([10]; spleen, 200 μg/day vs vehicle): also decreased | Mbp expression (real-time qPCR of lesion samples) [11]: increase | Pdgfra expression (real-time qPCR of lesion samples) [11]: increase | remyelinated axons (ultrastructural analyses of CCP lesions) [11]: more remyelinated axons than vehicle treatment | Nkx2.2+ oligodendrocyte precursor cells (OPCs) in lesions ([11]; vs vehicle): increased | density of CC1+ differentiated oligodendrocytes in lesions ([11]; vs vehicle): increased | density of Olig2+ oligodendrocyte lineage cells in lesions ([11]; vs vehicle): increased | microglial/macrophage activation (Iba1 staining in CC) ([12]; 6 weeks concurrent treatment, vs vehicle): no difference | terminal body weights ([12]; ANOVA, vs vehicle): no significant difference | number of SMI32 positive axonal ovoids in the corpus callosum ([12]; IRX4204 10 mg/kg PO, T4 20 ng/g SQ daily for 6 weeks during CR, vs Vehicle, 10 mg/kg): trend towards decreased number of axonal ovoids but was not statistically different from the Vehicle; also recorded: trend towards decrease in axonal ovoids, but it was statistically not different from vehicle | mortality during the in-life phase ([12]; mouse, in vivo): no mortality | decrease in T4 levels compared to vehicle control animals ([12]; terminal blood draws): ~50% | body weight ([13]; 10 mg/kg PO daily for 6 weeks after 12 weeks CR): no significant difference | size of myelinated axons in the corpus callosum ([13]; 6 weeks of treatment after 12 weeks CR): significantly increases; also recorded: shift in distribution to larger axon diameter | size of axons in the upper quartile ([13]; 6 weeks of treatment, 3rd quartile, axons about 0.7 μm, P<0.0001): significant increase

— patent US10092535B2, “Treatment of nervous system disorders using combinations of RXR agonists and thyroid hormones” (IO Therapeutics, Inc., priority 2015, dated 2018)
